ChEMBL document CHEMBL2028040, “Malaria Box”

Columns and labels:
[1] = tested on: Plasmodium falciparum; assay: MMV: Inhibition of Plasmodium falciparum 3D7 (EC50).; assay type: functional, organism-based
[2] = MMV: Cytotoxicity against human fibroblasts (MRC-5) cells.; conditions: MRC-5 cells (human fibroblasts)
[3] = tested on: Plasmodium falciparum; assay: MMV: Inhibition of Plasmodium falciparum 3D7 at 2uM compound concentration.; assay type: functional
[4] = tested on: Trypanosoma cruzi; assay: MMV: Inhibition of Trypanosoma cruzi (Tulahuen C4 LacZ) (Chagas in vitro).; assay type: functional, organism-based
[5] = tested on: Leishmania infantum; assay: MMV: Inhibition of Leishmania infantum (MHOM/MA/BE/67) in vitro.; assay type: functional, organism-based
[6] = tested on: Trypanosoma brucei rhodesiense; assay: MMV: Inhibition of Trypanosoma brucei rhodesiense (STIB 900) (HAT in vitro).; assay type: functional, organism-based
[7] = tested on: Trypanosoma brucei brucei; assay: MMV: Inhibition of Trypanosoma brucei brucei (Squib 427) (HAT in vitro).; assay type: functional, organism-based

EC50 [1]: 4 µM
IC50 [4]: > 32 µM
IC50 [5]: > 32 µM
IC50 [6]: > 32 µM
IC50 [7]: > 32 µM
Structure (SMILES): CCOc1ccc(Nc2ccnc3cc(Cl)ccc23)cc1
IC50 [2]: > 32 µM
inhibition at 2 µM [3]: 94%
